Assay results taken from US9873693B2 (Sunesis Pharmaceuticals, Inc., priority 2006, dated 2018).
Where two headings read alike, the source gives them in different places.

How the values were obtained:
phosphorylated PDK1 = phosphorylated PDK1 (Homo sapiens (Human), UniProt O15530); assay: PDK1 kinase assay (coupled PDK1/AKT/FAM-crosstide, IMAP); type: biochemical; settings: 0.5 nM phosphorylated PDK1, 24 μM ATP; read-out: Inhibition of phospo-PDK1 in vitro IC50
phospho-akt (Thr308) = phospho-akt (Thr308) MSD ELISA in PC-3 cells; type: cell-based; settings: for inhibition at 1 µM / inhibition at 10 µM: read-out: Percent Inhibition of phospho-Akt (308) By MSD ELISA
Method: PC-3 cells were harvested by trypsin and counted. Cells were plated in coated 96-well flat bottom plates (plate 15,000 cells/well in 100 ul growth media (10% FBS, 1× pen-strep) an place in an incubator overnight.
Subject inhibitors were stocked at 50 mM, then diluted to 30 mM (4.8 μl cpd plus […] DMSO) in 100% DMSO. Three-fold dilutions were performed from 30 mM stock. (4 μl into 8 ul 100% DMSO). Aliquots of 1.0 μl of inhibitor solution were transferred into SF Medium (using deep well block).
Control wells were prepared as follows. For DMSO high controls, 1.0 μl of 100% DMSO was added into 1.0 ml SF.
MSD plates were blocked for 1 hour by adding 150 μl of Blocking Solution (3% BSA) to each well. The MSD plates were washed 4× with TBST, and 50 μl lysates were transferred to MSD plate and place on plate shaker shake at 4 degrees O/N, light shaking (speed 3.5). The plate was washed 4× with TBST.
25 μl of Ab detection solution was added to each well. The plate was sealed and incubated 1 hr RT, light shaking (speed 3.5). The plate was washed 4 times with TBST. 150 μl of Read Buffer was added (5 mls 4×MSD Read Buffer+15 mls water). Finally the plate was read immediately on the MSD plate reader.

[1] = Homo sapiens, PC-3, 2 h, PC-3 cells, 2 hours, no serum, read-out: Inhibition of P308 Akt in cells using MSD EC50
[2] = Homo sapiens, PC-3, 2 h, PC-3 cells, 2 hours, no serum, read-out: Reduction of Cellular Levels of Akt p308 By MSD ELISA (EC50 μM)
[3] = Homo sapiens, PC-3, 2 h, read-out: Inhibition of P308 Akt in cells using MSD EC50
[4] = Homo sapiens, PC-3, 2 h, read-out: Reduction of Cellular Levels of Akt p308 By MSD ELISA (EC50 μM)

Chain of phosphorylated PDK1 (O15530 51-360): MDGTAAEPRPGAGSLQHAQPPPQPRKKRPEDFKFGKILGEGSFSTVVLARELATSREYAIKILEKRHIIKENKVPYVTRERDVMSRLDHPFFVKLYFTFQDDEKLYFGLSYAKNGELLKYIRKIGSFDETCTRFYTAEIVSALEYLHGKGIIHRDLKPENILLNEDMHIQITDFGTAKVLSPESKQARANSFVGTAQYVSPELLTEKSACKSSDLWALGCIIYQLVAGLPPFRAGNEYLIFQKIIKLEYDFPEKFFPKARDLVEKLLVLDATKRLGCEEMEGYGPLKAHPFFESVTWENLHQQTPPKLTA

SMILES	IC50 (phosphorylated PDK1)	EC50 (phospho-akt (Thr308); [1])	also measured
O=C(NCc1cccc(-c2c[nH]c3ncc(Br)cc23)c1)c1cccn(Cc2ccc(F)c(F)c2)c1=O [Cpd 330]	< 0.5 µM	1 to 5 µM	
O=C(Nc1cccc2ccc(-c3c[nH]c4ncccc34)cc12)c1cccn(Cc2ccc(F)c(F)c2)c1=O [Cpd 35]	< 0.5 µM	> 5 µM	EC50 (phospho-akt (Thr308); [2]): < 1 µM
O=C(NCc1cccc(-c2c[nH]c3ncc(-c4ccoc4)cc23)c1)c1cccn(Cc2ccc(F)c(F)c2)c1=O [Cpd 53]	< 0.5 µM	< 1 µM	
O=C(NCc1nccc(-c2c[nH]c3ncccc23)n1)c1cccn(Cc2ccc(F)c(F)c2)c1=O [Cpd 146]	< 0.5 µM	> 5 µM	EC50 (phospho-akt (Thr308); [2]): 1 to 5 µM
NCc1cnc2[nH]cc(-c3cccc(CNC(=O)c4cccn(Cc5ccc(F)c(F)c5)c4=O)c3)c2c1 [Cpd 37]	< 0.5 µM		EC50 (phospho-akt (Thr308); PC-3 cells, 2 hours, no serum, read-out: Inhibition of P308 Akt in cells using MSD EC50): 1 to 5 µM
O=C(NCc1cccc(-c2c[nH]c3ncc(-c4cccs4)cc23)c1)c1cccn(Cc2ccc(F)c(F)c2)c1=O [Cpd 51]	< 0.5 µM	1 to 5 µM	
O=C(NC(COc1ccc2[nH]c(=O)[nH]c2c1)c1ccc(OCc2ccccc2)cc1)c1cccn(Cc2cc(F)c(F)c(F)c2)c1=O (centres unmarked) [Cpd 186]	< 0.5 µM		EC50 (phospho-akt (Thr308); [3]): > 5 µM
O=C(NCc1cccc(-c2c[nH]c3ncc(-c4cccnc4)cc23)c1)c1cccn(Cc2ccc(F)c(F)c2)c1=O [Cpd 47]	< 0.5 µM	< 1 µM	
O=C(NCc1cc(-c2c[nH]c3ncccc23)cc(C(F)F)n1)c1cccn(Cc2ccc(F)c(F)c2)c1=O [Cpd 208]	< 0.5 µM	< 1 µM	
O=C(NCc1cc(-c2c[nH]c3ncccc23)cc(CO)n1)c1cccn(Cc2ccc(F)c(F)c2)c1=O [Cpd 196]	< 0.5 µM	1 to 5 µM	
O=C(NCc1noc(-c2c[nH]c3ncccc23)n1)c1cccn(Cc2ccc(Cl)c(Cl)c2)c1=O [Cpd 312]	< 0.5 µM	1 to 5 µM	inhibition at 1 µM (phospho-akt (Thr308); Homo sapiens, PC-3 cells): 25 to 75%; inhibition at 10 µM (phospho-akt (Thr308); Homo sapiens, PC-3 cells): > 75%
COCCNC(=O)c1cnc2[nH]cc(-c3cccc(CNC(=O)c4cccn(Cc5ccc(F)c(F)c5)c4=O)c3)c2c1 [Cpd 30]	< 0.5 µM	< 1 µM	EC50 (phospho-akt (Thr308); [2]): < 1 µM
O=C(NC(COc1ccc2[nH]c(=O)[nH]c2c1)c1ccc(O)cc1)c1cccn(Cc2cc(F)c(F)c(F)c2)c1=O (centres unmarked) [Cpd 188]	< 0.5 µM	1 to 5 µM	
O=C(NCc1cccc(-c2c[nH]c3cccnc23)c1)c1cccn(Cc2ccc(F)c(F)c2)c1=O [Cpd 241]	0.5 to 10 µM		inhibition at 1 µM (phospho-akt (Thr308); Homo sapiens, PC-3 cells): < 25%; inhibition at 10 µM (phospho-akt (Thr308); Homo sapiens, PC-3 cells): 25 to 75%
O=C(NCc1cccc(-c2c[nH]c3ncccc23)n1)c1cccn(Cc2ccc(F)c(F)c2)c1=O [Cpd 4]	< 0.5 µM	1 to 5 µM	inhibition at 1 µM (phospho-akt (Thr308); Homo sapiens, PC-3 cells): 25 to 75%; inhibition at 10 µM (phospho-akt (Thr308); Homo sapiens, PC-3 cells): > 75%
O=C(N[C@@H](/C=C/c1ccc2[nH]c(=O)[nH]c2c1)c1ccccc1)c1cccn(Cc2cc(F)c(F)c(F)c2)c1=O [Cpd 183]	< 0.5 µM		EC50 (phospho-akt (Thr308); [3]): 1 to 5 µM
Nc1ncccc1-c1ccc(CNC(=O)c2cccn(Cc3ccc(F)c(F)c3)c2=O)s1 [Cpd 97]	< 0.5 µM	1 to 5 µM	
O=C1Nc2cc(/C=C/CNC(=O)c3cccn(Cc4cc(F)c(F)c(F)c4)c3=O)ccc2/C1=C\c1ccc(O)cc1 [Cpd 201]	< 0.5 µM	< 1 µM	
NC(=O)c1cnc2[nH]cc(-c3cccc(CNC(=O)c4cccn(Cc5ccc(F)c(F)c5)c4=O)c3)c2c1 [Cpd 26]	< 0.5 µM	< 1 µM	EC50 (phospho-akt (Thr308); [2]): < 1 µM
NCc1cnc2[nH]cc(-c3cccc(CNC(=O)c4cccn(Cc5ccc(F)c(F)c5)c4=O)c3)c2c1 [Cpd 243]	< 0.5 µM	< 1 µM	EC50 (phospho-akt (Thr308); [2]): 1 to 5 µM
O=C(NCc1cccc(-c2n[nH]c3ncccc23)c1)c1cccn(Cc2ccc(F)c(F)c2)c1=O [Cpd 6]	< 0.5 µM	1 to 5 µM	inhibition at 1 µM (phospho-akt (Thr308); Homo sapiens, PC-3 cells): 25 to 75%; inhibition at 10 µM (phospho-akt (Thr308); Homo sapiens, PC-3 cells): 25 to 75%
CCCNC(=O)C[C@@H](NC(=O)c1cccn(Cc2ccc(F)c(F)c2)c1=O)c1ccc(-c2c[nH]c3ncccc23)s1 [Cpd 32]	< 0.5 µM		EC50 (phospho-akt (Thr308); [3]): 1 to 5 µM; EC50 (phospho-akt (Thr308); [4]): 1 to 5 µM

SMILES	IC50 (phosphorylated PDK1)	EC50 (phospho-akt (Thr308); [1])	also measured
O=C1Nc2cc(/C=C/CNC(=O)c3cccn(Cc4cc(F)c(F)c(F)c4)c3=O)ccc2/C1=C\c1ccccc1 [Cpd 209]	< 0.5 µM	> 5 µM	
O=C(NCc1cccc(-c2c[nH]c3nccc(Cl)c23)c1)c1cccn(Cc2ccc(F)c(F)c2)c1=O [Cpd 50]	< 0.5 µM	1 to 5 µM	
O=C(NCc1cc(-c2c[nH]c3ncccc23)ccn1)c1cccn(Cc2ccc(F)c(F)c2)c1=O [Cpd 164]	< 0.5 µM	< 1 µM	
O=C1Nc2cc(/C=C/CNC(=O)c3cccn(Cc4ccc(F)c(F)c4)c3=O)ccc2/C1=C\c1cccnc1 [Cpd 200]	< 0.5 µM	1 to 5 µM	
O=C(C[C@@H](NC(=O)c1cccn(Cc2ccc(F)c(F)c2)c1=O)c1ccc(-c2c[nH]c3ncccc23)s1)NC1CC1 [Cpd 33]	< 0.5 µM	1 to 5 µM	EC50 (phospho-akt (Thr308); [2]): 1 to 5 µM
O=C(Cc1cccc(C2CNc3ncccc32)c1)Nc1cccn(Cc2ccc(F)c(F)c2)c1=O (centres unmarked) [Cpd 44]	< 0.5 µM	1 to 5 µM	
O=C(NCc1ccc(-c2c[nH]c3nccc(Cl)c23)s1)c1cccn(Cc2ccc(F)c(F)c2)c1=O [Cpd 55]	< 0.5 µM	1 to 5 µM	
O=C1Nc2cc(/C=C/CNC(=O)c3cccn(Cc4cc(F)c(F)c(F)c4)c3=O)ccc2/C1=C/c1ncc[nH]1 [Cpd 195]	< 0.5 µM	< 1 µM	
O=C(NCc1cccc(-c2c[nH]c3ncccc23)c1)c1cccn(Cc2ccc(Cl)c(Cl)c2)c1=O [Cpd 324]	< 0.5 µM	> 5 µM	EC50 (phospho-akt (Thr308); [2]): > 5 µM
O=C1Nc2cc(/C=C/CNC(=O)c3cccn(Cc4cc(F)c(F)c(F)c4)c3=O)ccc2/C1=C/c1cccs1 [Cpd 198]	< 0.5 µM	1 to 5 µM	
CCNC(=O)c1cnc2[nH]cc(-c3cccc(CNC(=O)c4cccn(Cc5ccc(F)c(F)c5)c4=O)c3)c2c1 [Cpd 28]	< 0.5 µM	< 1 µM	EC50 (phospho-akt (Thr308); [2]): < 1 µM
CNC(=O)c1cc(-c2c[nH]c3ncccc23)cc(CNC(=O)c2cccn(Cc3ccc(F)c(F)c3)c2=O)n1 [Cpd 180]	< 0.5 µM	< 1 µM	
CC(C)Oc1cc(CNC(=O)c2cccn(Cc3ccc(F)c(F)c3)c2=O)cc(-c2c[nH]c3ncccc23)c1 [Cpd 25]	< 0.5 µM		EC50 (phospho-akt (Thr308); [3]): < 1 µM; EC50 (phospho-akt (Thr308); [4]): < 1 µM
O=C(N[C@@H](COc1ccc2[nH]c(=O)[nH]c2c1)c1ccsc1)c1cccn(Cc2ccc(F)c(F)c2)c1=O [Cpd 190]	< 0.5 µM	< 1 µM	
O=C1Nc2cc(/C=C/CNC(=O)c3cccn(Cc4cc(F)c(F)c(F)c4)c3=O)ccc2/C1=C/c1nccs1 [Cpd 203]	< 0.5 µM	1 to 5 µM	
O=C(Nc1n[nH]c2ccc(-c3c[nH]c4ncccc34)cc12)c1cccn(Cc2ccc(F)c(F)c2)c1=O [Cpd 245]	< 0.5 µM	1 to 5 µM	
O=C1CCc2c(ncnc2-c2cccc(CNC(=O)c3cccn(Cc4ccc(F)c(F)c4)c3=O)c2)N1 [Cpd 240]	> 10 µM		EC50 (phospho-akt (Thr308); [2]): 1 to 5 µM; inhibition at 1 µM (phospho-akt (Thr308); Homo sapiens, PC-3 cells): < 25%; inhibition at 10 µM (phospho-akt (Thr308); Homo sapiens, PC-3 cells): < 25%
CN(C)C(=O)c1cc(-c2c[nH]c3ncccc23)cc(CNC(=O)c2cccn(Cc3ccc(F)c(F)c3)c2=O)n1 [Cpd 181]	< 0.5 µM	1 to 5 µM	
O=C(NCc1cccc(-c2c[nH]c3ncc(-c4ccncc4)cc23)c1)c1cccn(Cc2ccc(F)c(F)c2)c1=O [Cpd 48]	< 0.5 µM	< 1 µM	
CC(C)Oc1cc(CNC(=O)c2cccn(Cc3ccc(F)c(F)c3)c2=O)cc(-c2c[nH]c3ncc(F)cc23)c1 [Cpd 98]	< 0.5 µM	1 to 5 µM	
CC(=O)Oc1ccc(C(COc2ccc3[nH]c(=O)[nH]c3c2)NC(=O)c2cccn(Cc3cc(F)c(F)c(F)c3)c2=O)cc1 (centres unmarked) [Cpd 189]	< 0.5 µM	< 1 µM	
CC(C)/C=C1/C(=O)Nc2cc(/C=C/CNC(=O)c3cccn(Cc4cc(F)c(F)c(F)c4)c3=O)ccc21 [Cpd 205]	< 0.5 µM	> 5 µM	
